Test results reported in PMC5290327, “SC83288 is a clinical development candidate for the treatment of severe malaria” (Nature Communications, 2017).

Assays:
Assay in all cases: KINOMEscan
Format in all cases: binding
Conditions in all cases: read-out: Remaining enzyme activity
ASK1 = biological target: T1, ASK1 (Homo sapiens, UniProt Q99683)
T1 construct: purchased Ambit (DiscoverX) KINOMEscan; Cerep
Outline: (§1)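 Each kinase, tagged with DNA, is partitioned between test compound and an immobilized active-site ligand; qPCR of the eluate reports the bound fraction. SC81458 dosed once, 10 μM final concentration.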

BMPR2 = biological target: T2, BMPR2 (Homo sapiens, UniProt Q13873)
T2 construct: purchased Ambit (DiscoverX) KINOMEscan; Cerep
Outline: as §1

BRAF = biological target: T3, BRAF (Homo sapiens, UniProt P15056)
T3 construct: purchased Ambit (DiscoverX) KINOMEscan; Cerep
Outline: as §1

CAMK1d = biological target: T4, CAMK1d (Homo sapiens, UniProt Q8IU85)
T4 construct: purchased Ambit (DiscoverX) KINOMEscan; Cerep
Outline: as §1

CAMK4 = biological target: T5, CAMK4 (Homo sapiens, UniProt Q16566)
T5 construct: purchased Ambit (DiscoverX) KINOMEscan; Cerep
T5 sequence (Q16566 whole entry): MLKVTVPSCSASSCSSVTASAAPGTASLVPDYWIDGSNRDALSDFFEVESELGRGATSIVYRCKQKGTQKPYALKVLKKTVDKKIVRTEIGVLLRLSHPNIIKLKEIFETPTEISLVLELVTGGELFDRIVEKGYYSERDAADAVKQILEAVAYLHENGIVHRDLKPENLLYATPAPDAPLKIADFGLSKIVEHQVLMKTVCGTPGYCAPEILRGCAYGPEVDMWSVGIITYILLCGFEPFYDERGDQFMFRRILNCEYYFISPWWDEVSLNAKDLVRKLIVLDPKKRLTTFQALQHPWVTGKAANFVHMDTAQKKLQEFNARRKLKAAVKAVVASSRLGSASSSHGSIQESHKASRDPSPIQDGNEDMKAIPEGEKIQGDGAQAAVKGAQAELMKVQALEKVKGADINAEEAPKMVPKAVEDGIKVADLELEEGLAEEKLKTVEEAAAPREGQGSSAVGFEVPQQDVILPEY
Outline: as §1

CAMKK1 = biological target: T6, CAMKK1 (Homo sapiens, UniProt Q8N5S9)
T6 construct: purchased Ambit (DiscoverX) KINOMEscan; Cerep
Outline: as §1

CSF1R = biological target: T7, CSF1R (Homo sapiens, UniProt P07333)
T7 construct: purchased Ambit (DiscoverX) KINOMEscan; Cerep
Outline: as §1

CTK = biological target: T8, CTK (Homo sapiens, UniProt P42679)
T8 construct: purchased Ambit (DiscoverX) KINOMEscan; Cerep
Outline: as §1

DAPK3 = biological target: T9, DAPK3 (Homo sapiens, UniProt O43293)
T9 construct: purchased Ambit (DiscoverX) KINOMEscan; Cerep
T9 sequence (O43293 whole entry): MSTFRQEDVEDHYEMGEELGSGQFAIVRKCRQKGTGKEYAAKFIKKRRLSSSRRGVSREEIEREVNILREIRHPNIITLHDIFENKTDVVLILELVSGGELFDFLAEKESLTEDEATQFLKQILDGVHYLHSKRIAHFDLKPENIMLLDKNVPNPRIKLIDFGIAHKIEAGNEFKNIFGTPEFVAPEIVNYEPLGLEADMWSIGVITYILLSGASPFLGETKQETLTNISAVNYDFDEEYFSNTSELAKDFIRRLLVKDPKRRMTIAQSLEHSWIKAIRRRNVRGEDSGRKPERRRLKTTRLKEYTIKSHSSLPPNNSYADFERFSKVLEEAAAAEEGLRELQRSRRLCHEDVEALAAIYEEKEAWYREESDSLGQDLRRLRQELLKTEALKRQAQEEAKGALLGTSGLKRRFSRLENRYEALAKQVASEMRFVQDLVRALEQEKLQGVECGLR
Outline: as §1

DMPK2 = biological target: T10, DMPK2 (Homo sapiens, UniProt Q6DT37)
T10 construct: purchased Ambit (DiscoverX) KINOMEscan; Cerep
Outline: as §1

EGFR(L858R) = biological target: T11, EGFR(L858R) (Homo sapiens, UniProt P00533, L858R)
T11 construct: purchased Ambit (DiscoverX) KINOMEscan; Cerep
Outline: as §1

EPHA1 = biological target: T12, EPHA1 (Homo sapiens, UniProt P21709)
T12 construct: purchased Ambit (DiscoverX) KINOMEscan; Cerep
Outline: as §1

ERBB2 = biological target: T13, ERBB2 (Homo sapiens, UniProt P04626)
T13 construct: purchased Ambit (DiscoverX) KINOMEscan; Cerep
Outline: as §1

ERBB4 = biological target: T14, ERBB4 (Homo sapiens, UniProt Q15303)
T14 construct: purchased Ambit (DiscoverX) KINOMEscan; Cerep
T14 sequence (Q15303 26-1308): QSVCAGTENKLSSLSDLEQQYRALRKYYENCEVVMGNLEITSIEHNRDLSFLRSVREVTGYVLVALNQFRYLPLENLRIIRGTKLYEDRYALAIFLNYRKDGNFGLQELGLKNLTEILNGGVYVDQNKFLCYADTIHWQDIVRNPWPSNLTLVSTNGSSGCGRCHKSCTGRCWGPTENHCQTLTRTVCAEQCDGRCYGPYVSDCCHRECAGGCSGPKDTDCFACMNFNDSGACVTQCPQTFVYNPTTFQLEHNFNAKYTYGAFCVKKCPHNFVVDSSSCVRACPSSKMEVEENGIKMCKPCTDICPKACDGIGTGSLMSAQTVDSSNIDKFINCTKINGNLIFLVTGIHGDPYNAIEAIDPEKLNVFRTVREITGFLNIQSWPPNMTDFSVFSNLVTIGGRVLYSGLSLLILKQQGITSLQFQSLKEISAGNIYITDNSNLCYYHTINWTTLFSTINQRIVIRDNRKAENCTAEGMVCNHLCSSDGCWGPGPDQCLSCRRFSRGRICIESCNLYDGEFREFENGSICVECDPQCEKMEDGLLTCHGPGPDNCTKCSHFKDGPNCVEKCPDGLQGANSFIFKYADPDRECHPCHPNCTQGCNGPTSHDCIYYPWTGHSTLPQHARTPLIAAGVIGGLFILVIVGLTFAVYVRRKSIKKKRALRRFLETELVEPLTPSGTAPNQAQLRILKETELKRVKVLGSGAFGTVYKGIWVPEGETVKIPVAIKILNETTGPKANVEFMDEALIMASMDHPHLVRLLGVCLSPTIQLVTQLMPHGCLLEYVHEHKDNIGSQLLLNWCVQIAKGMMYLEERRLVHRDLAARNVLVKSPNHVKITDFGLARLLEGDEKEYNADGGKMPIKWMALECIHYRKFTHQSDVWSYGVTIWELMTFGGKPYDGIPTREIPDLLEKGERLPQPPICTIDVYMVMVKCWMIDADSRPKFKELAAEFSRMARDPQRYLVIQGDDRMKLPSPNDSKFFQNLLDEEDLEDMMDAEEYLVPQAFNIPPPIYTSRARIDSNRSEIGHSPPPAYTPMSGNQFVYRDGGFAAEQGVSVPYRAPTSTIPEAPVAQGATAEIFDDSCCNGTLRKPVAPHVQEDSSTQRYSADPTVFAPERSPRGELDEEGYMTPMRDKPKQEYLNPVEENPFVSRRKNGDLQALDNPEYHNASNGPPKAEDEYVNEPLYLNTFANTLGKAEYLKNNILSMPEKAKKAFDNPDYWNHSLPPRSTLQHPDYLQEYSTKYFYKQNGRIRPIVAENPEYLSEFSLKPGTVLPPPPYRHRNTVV
Outline: as §1

FGFR3 = biological target: T15, FGFR3 (Homo sapiens, UniProt P22607)
T15 construct: purchased Ambit (DiscoverX) KINOMEscan; Cerep
Outline: as §1

FLT1 = biological target: T16, FLT1 (Homo sapiens, UniProt P17948)
T16 construct: purchased Ambit (DiscoverX) KINOMEscan; Cerep
Outline: as §1

KIT = biological target: T17, KIT (Homo sapiens, UniProt P10721)
T17 construct: purchased Ambit (DiscoverX) KINOMEscan; Cerep
Outline: as §1

LCK = biological target: T18, LCK (Homo sapiens, UniProt P06239)
T18 construct: purchased Ambit (DiscoverX) KINOMEscan; Cerep
Outline: as §1

MAP3K1 = biological target: T19, MAP3K1 (Homo sapiens, UniProt Q13233)
T19 construct: purchased Ambit (DiscoverX) KINOMEscan; Cerep
Outline: as §1

MAST1 = biological target: T20, MAST1 (Homo sapiens, UniProt Q9Y2H9)
T20 construct: purchased Ambit (DiscoverX) KINOMEscan; Cerep
Outline: as §1

MEK6 = biological target: T21, MEK6 (Homo sapiens, UniProt P52564)
T21 construct: purchased Ambit (DiscoverX) KINOMEscan; Cerep
T21 sequence (P52564 whole entry): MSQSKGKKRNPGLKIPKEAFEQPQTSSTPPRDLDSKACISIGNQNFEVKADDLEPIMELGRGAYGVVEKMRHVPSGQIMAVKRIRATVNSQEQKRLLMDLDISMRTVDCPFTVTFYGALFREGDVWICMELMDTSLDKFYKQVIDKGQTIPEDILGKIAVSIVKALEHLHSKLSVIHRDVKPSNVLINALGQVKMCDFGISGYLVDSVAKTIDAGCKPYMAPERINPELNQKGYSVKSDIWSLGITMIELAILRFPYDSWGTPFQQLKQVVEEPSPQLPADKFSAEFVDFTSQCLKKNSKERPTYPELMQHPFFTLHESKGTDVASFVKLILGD
Outline: as §1

MERTK = biological target: T22, MERTK (Homo sapiens, UniProt Q12866)
T22 construct: purchased Ambit (DiscoverX) KINOMEscan; Cerep
Outline: as §1

MET = biological target: T23, MET (Homo sapiens, UniProt P08581)
T23 construct: purchased Ambit (DiscoverX) KINOMEscan; Cerep
Outline: as §1

MYO3a = biological target: T24, MYO3a (Homo sapiens, UniProt Q8NEV4)
T24 construct: purchased Ambit (DiscoverX) KINOMEscan; Cerep
Outline: as §1

PCTK1 = biological target: T25, PCTK1 (Homo sapiens, UniProt Q00536)
T25 construct: purchased Ambit (DiscoverX) KINOMEscan; Cerep
T25 sequence (Q00536 whole entry): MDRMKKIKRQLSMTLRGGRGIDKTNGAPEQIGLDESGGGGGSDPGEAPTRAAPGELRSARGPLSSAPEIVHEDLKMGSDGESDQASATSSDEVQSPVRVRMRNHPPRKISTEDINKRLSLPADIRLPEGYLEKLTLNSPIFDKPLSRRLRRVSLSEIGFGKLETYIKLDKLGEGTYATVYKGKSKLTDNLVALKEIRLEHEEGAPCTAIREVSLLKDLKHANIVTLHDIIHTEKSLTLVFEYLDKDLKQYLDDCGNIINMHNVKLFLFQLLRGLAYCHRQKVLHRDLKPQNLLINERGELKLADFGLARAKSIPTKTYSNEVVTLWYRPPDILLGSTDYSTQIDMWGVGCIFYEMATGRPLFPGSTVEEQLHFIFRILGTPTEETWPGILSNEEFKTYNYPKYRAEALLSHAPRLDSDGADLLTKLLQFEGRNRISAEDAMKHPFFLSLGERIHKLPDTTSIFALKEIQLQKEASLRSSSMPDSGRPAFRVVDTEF
Outline: as §1

PIK3CA(M1043I) = biological target: T26, PIK3CA(M1043I) (Homo sapiens, UniProt P42336, M1043I)
T26 construct: purchased Ambit (DiscoverX) KINOMEscan; Cerep
T26 sequence (P42336 whole entry M1043I): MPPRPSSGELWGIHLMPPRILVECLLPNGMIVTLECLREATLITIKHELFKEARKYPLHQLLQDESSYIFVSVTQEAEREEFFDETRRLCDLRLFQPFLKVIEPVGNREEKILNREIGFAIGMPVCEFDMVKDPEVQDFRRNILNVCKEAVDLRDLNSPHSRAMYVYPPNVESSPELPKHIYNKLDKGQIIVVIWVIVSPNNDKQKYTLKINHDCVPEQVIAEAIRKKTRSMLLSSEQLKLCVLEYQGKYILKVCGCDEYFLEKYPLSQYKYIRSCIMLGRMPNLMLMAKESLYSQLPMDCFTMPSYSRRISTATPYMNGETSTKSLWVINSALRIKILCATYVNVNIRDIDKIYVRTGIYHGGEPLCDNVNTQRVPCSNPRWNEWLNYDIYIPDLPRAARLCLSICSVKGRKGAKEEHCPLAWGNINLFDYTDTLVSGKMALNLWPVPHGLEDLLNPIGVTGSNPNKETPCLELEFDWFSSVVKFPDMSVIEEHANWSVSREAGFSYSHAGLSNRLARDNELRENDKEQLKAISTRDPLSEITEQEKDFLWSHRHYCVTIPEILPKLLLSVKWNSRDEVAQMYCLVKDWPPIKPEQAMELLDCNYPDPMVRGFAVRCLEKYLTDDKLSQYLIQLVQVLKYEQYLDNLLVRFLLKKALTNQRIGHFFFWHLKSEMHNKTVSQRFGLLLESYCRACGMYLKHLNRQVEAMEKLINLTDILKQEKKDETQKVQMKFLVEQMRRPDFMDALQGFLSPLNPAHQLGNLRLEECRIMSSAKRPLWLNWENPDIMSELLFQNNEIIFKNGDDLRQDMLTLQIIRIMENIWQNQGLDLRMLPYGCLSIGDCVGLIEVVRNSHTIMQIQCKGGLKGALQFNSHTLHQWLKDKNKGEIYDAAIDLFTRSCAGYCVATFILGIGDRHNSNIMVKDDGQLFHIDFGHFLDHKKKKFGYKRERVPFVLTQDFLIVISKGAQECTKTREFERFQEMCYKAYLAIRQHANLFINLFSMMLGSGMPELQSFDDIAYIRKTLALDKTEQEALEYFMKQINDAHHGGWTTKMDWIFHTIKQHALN
Outline: as §1

RIOK2 = biological target: T27, RIOK2 (Homo sapiens, UniProt Q9BVS4)
T27 construct: purchased Ambit (DiscoverX) KINOMEscan; Cerep
Outline: as §1

[1] = biological target: T28, RPS6KA4(Kin.Dom.2-C-term) (Homo sapiens, UniProt O75676)
T28 construct: RPS6KA4(Kin.Dom.2-C-term); purchased Ambit (DiscoverX) KINOMEscan; Cerep
T28 sequence (O75676 411-674 limits assumed): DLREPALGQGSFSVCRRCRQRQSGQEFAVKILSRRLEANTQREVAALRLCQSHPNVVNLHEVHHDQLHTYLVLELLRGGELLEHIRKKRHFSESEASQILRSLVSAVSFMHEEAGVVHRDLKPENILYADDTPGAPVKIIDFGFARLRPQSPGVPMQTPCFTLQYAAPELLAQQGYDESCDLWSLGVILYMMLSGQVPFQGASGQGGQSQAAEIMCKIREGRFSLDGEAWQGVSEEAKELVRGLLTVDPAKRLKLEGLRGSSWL
Outline: as §1

RRET(V804L) = biological target: T29, RRET(V804L) (Homo sapiens, UniProt P07949, V804L)
T29 construct: purchased Ambit (DiscoverX) KINOMEscan; Cerep
Outline: as §1

SNARK = biological target: T30, SNARK (Homo sapiens, UniProt Q9H093)
T30 construct: purchased Ambit (DiscoverX) KINOMEscan; Cerep
Outline: as §1

TEC = biological target: T31, TEC (Homo sapiens, UniProt P42680)
T31 construct: purchased Ambit (DiscoverX) KINOMEscan; Cerep
T31 sequence (P42680 whole entry): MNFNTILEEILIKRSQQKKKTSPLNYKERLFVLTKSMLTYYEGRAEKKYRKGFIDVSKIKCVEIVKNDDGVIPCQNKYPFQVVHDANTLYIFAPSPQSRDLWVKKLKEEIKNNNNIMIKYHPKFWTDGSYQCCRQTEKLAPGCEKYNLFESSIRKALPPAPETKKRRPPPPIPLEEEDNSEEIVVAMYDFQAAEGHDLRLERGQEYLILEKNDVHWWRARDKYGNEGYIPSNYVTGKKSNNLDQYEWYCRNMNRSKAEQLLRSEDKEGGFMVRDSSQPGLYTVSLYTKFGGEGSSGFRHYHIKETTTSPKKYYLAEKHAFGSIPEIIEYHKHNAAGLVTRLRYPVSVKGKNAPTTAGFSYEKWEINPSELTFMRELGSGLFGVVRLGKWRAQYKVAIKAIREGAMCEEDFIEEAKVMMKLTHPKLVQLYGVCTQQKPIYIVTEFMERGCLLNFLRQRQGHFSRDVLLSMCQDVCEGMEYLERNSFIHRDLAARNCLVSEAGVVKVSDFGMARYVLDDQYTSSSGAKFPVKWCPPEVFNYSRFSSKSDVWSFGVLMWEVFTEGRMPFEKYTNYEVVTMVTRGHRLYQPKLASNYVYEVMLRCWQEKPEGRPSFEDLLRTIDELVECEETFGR
Outline: as §1

TNK1 = biological target: T32, TNK1 (Homo sapiens, UniProt Q13470)
T32 construct: purchased Ambit (DiscoverX) KINOMEscan; Cerep
Outline: as §1

TNK2 = biological target: T33, TNK2 (Homo sapiens, UniProt Q07912)
T33 construct: purchased Ambit (DiscoverX) KINOMEscan; Cerep
Outline: as §1

YANK2 = biological target: T34, YANK2 (Homo sapiens, UniProt Q9NY57)
T34 construct: purchased Ambit (DiscoverX) KINOMEscan; Cerep
Outline: as §1

**Q.** For CCCCN1CCN(C(=N)c2cccc(NC(=O)Nc3ccc(S(=O)(=O)NCc4ccc(S(N)(=O)=O)cc4)cc3)c2)CC1 [SC81458, 4-(3-(3-((4-butylpiperazin-1-yl)(imino)methyl)phenyl)ureido)-N-(4-sulfamoylbenzyl) benzenesulfonamide], which remaining binding at 10 µM (ASK1) is on record?
**A.** The remaining binding at 10 µM was 100%.

**Q.** And the remaining binding at 10 µM (BMPR2)?
**A.** Its remaining binding at 10 µM is 100%.

**Q.** What about the remaining binding at 10 µM (BRAF) of the same molecule?
**A.** Its remaining binding at 10 µM is 95%.

**Q.** And the remaining binding at 10 µM (CAMK1d)?
**A.** The remaining binding at 10 µM was 91%.

**Q.** And the remaining binding at 10 µM (CAMK4)?
**A.** The remaining binding at 10 µM was 51%.

**Q.** What about the remaining binding at 10 µM (CAMKK1) of the same molecule?
**A.** Its remaining binding at 10 µM is 93%.

**Q.** And the remaining binding at 10 µM (CSF1R)?
**A.** Its remaining binding at 10 µM is 82%.

**Q.** What about the remaining binding at 10 µM (CTK) of the same molecule?
**A.** The remaining binding at 10 µM was 100%.

**Q.** And the remaining binding at 10 µM (DAPK3)?
**A.** Its remaining binding at 10 µM is 100%.

**Q.** What about the remaining binding at 10 µM (DMPK2) of the same molecule?
**A.** Its remaining binding at 10 µM is 100%.

**Q.** And the remaining binding at 10 µM (EGFR(L858R))?
**A.** The remaining binding at 10 µM was 92%.

**Q.** What about the remaining binding at 10 µM (EPHA1) of the same molecule?
**A.** The remaining binding at 10 µM was 91%.

**Q.** What about the remaining binding at 10 µM (ERBB2) of the same molecule?
**A.** Its remaining binding at 10 µM is 100%.

**Q.** What about the remaining binding at 10 µM (ERBB4) of the same molecule?
**A.** Its remaining binding at 10 µM is 100%.

**Q.** And the remaining binding at 10 µM (FGFR3)?
**A.** The remaining binding at 10 µM was 100%.

**Q.** What about the remaining binding at 10 µM (FLT1) of the same molecule?
**A.** Its remaining binding at 10 µM is 91%.

**Q.** And the remaining binding at 10 µM (KIT)?
**A.** The remaining binding at 10 µM was 60%.

**Q.** What about the remaining binding at 10 µM (LCK) of the same molecule?
**A.** Its remaining binding at 10 µM is 100%.

**Q.** What about the remaining binding at 10 µM (MAP3K1) of the same molecule?
**A.** The remaining binding at 10 µM was 100%.

**Q.** And the remaining binding at 10 µM (MAST1)?
**A.** Its remaining binding at 10 µM is 46%.

**Q.** And the remaining binding at 10 µM (MEK6)?
**A.** The remaining binding at 10 µM was 81%.

**Q.** What about the remaining binding at 10 µM (MERTK) of the same molecule?
**A.** The remaining binding at 10 µM was 100%.

**Q.** And the remaining binding at 10 µM (MET)?
**A.** The remaining binding at 10 µM was 78%.

**Q.** And the remaining binding at 10 µM (MYO3a)?
**A.** The remaining binding at 10 µM was 100%.

**Q.** What about the remaining binding at 10 µM (PCTK1) of the same molecule?
**A.** Its remaining binding at 10 µM is 92%.

**Q.** And the remaining binding at 10 µM (PIK3CA(M1043I))?
**A.** Its remaining binding at 10 µM is 100%.

**Q.** And the remaining binding at 10 µM (RIOK2)?
**A.** The remaining binding at 10 µM was 98%.

**Q.** What about the remaining binding at 10 µM [1] of the same molecule?
**A.** The remaining binding at 10 µM was 92%.

**Q.** And the remaining binding at 10 µM (RRET(V804L))?
**A.** The remaining binding at 10 µM was 100%.

**Q.** And the remaining binding at 10 µM (SNARK)?
**A.** Its remaining binding at 10 µM is 100%.

**Q.** What about the remaining binding at 10 µM (TEC) of the same molecule?
**A.** Its remaining binding at 10 µM is 90%.

**Q.** And the remaining binding at 10 µM (TNK1)?
**A.** Its remaining binding at 10 µM is 70%.

**Q.** What about the remaining binding at 10 µM (TNK2) of the same molecule?
**A.** Its remaining binding at 10 µM is 94%.

**Q.** And the remaining binding at 10 µM (YANK2)?
**A.** The remaining binding at 10 µM was 99%.
